Source: patent US20250304576A1 (Cancer Research Technology Limited, priority 2022, published 2025)

Target: T1, CHUK (IKK alpha) (Homo sapiens, UniProt O15111)
T1 construct: purchased Life Technologies (assay performed by the vendor)
T1 sequence (O15111 1-745): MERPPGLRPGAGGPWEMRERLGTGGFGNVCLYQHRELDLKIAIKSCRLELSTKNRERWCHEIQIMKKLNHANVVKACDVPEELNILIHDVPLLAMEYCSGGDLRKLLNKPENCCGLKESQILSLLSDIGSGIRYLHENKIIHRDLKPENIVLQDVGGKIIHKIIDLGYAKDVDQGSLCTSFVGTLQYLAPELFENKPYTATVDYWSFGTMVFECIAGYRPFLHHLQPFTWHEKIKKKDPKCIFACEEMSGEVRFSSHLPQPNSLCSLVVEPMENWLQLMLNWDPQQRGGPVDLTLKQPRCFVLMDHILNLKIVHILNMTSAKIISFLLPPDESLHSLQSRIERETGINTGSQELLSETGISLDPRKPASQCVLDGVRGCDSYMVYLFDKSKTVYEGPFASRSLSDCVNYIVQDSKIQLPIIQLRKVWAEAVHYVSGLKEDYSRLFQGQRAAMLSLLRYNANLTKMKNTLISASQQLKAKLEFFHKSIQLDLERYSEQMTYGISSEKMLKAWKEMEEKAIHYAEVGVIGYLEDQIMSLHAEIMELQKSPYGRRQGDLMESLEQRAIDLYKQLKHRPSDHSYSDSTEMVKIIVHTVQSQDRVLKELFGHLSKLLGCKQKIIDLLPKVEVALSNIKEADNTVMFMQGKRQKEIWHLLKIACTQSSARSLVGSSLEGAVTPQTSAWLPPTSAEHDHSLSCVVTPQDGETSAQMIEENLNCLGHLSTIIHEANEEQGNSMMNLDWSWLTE
Test: Adapta IKKα assay (TR-FRET ADP formation, Life Technologies)
Format: biochemical
Settings: Adapta assay
Experimental: IKKα and IKKβ inhibitory activity was determined using three different assays: a dissociation enhanced ligand fluorescent immunoassay (DELFIA) based on the protocol of HTScan™ IKKβ Kinase Assay (Cell Signaling Technology, USA); an Adapta IKKα assay (performed by Life Technologies); a Z′-LYTE™ IKKβ assay (performed by Life Technologies).
The reaction was performed in low-volume white 384-well plates (Corning model 4512).
The test compounds were screened in 1% DMSO (final) in the well. For 10 point titrations, 3-fold serial dilutions were conducted from the starting concentration of 50 mM.
The 2× CHUK (IKK alpha) kinase was prepared in 50 mM HEPES pH 7.5, 0.01% BRIJ-35, 10 mM MgCl2 and 1 mM EGTA. The final 10 μL kinase mixture consisted of 50-250 ng CHUK (IKK alpha) in 32.5 mM HEPES pH 7.5, 0.005% BRIJ-35, 5 mM MgCl2 and 0.5 mM EGTA. No substrate was required, as the assay measures the ability of a compound to inhibit the kinase's intrinsic ATPase activity.
5 μL of 2× Kinase mixture was incubated with 2.5 μL of ATP solution diluted to a 4×working concentration in water, in the presence of 100 nL of 100× test compound in 100% DMSO and 2.4 μL of 30 mM HEPES buffer.
After 30-second plate shake and 1-minute centrifuge at 1000×g, the resulting kinase reaction was allowed to incubate for 1 hour at room temperature before 5 μL of Detection Mix was added.
The Detection Mix, previously prepared in TR-FRET Dilution Buffer, consisted of EDTA (30 mM), Eu-anti-ADP antibody (6 nM) and an Alexa Fluor™ 647 labelled ADP tracer. The Detection Mix contained the EC60 concentration of tracer for 5-150 μM ATP.
After 30-second plate shake and 1-minute centrifuge at 1000×g, the Detection Mix was allowed to equilibrate at room temperature for 1 hour. Then the plate was read using a fluorescence plate reader configured for Adapta™ TR-FRET and the data analysed.
ADP formation was determined by calculating the emission ratio from the assay well. Therefore, the emission ratio was calculated by dividing the intensity of the tracer (acceptor) emission by the intensity of the Eu (donor) emission at 615 nm as shown in the equation below.
The IKKα and IKKb figures quoted in italicised form are from the Adapta assay described above.

Row | SMILES | IC50 [nM]
1 | CC(C)(N)C#Cc1c(-c2ccc3[nH]nc(N)c3c2)ccnc1N [Example 92, 5-(2-Amino-3-(3-amino-3-methylbut-1-yn-1-yl)pyridin-4-yl)-1H-indazol-3-amine] | 6
2 | Nc1nccc(-c2ccc3[nH]nc(N)c3c2)c1C#CC1CCCCC1 [Example 74, 5-(2-Amino-3-(cyclohexylethynyl)pyridine-4-yl)-1H-indazol-3-amine] | 3
3 | Nc1nccc(-c2ccc3[nH]nc(N)c3c2)c1C#CCCCN1CCCCC1 [Example 95, 5-(2-Amino-3-(5-(piperidin-1-yl)pent-1-yn-1-yl)pyridin-4-yl)-1H-indazol-3-amine] | 12
4 | Nc1nccc(-c2ccc3[nH]nc(N)c3c2)c1C#CCCO [Example 84, 4-(2-Amino-4-(3-amino-1H-indazol-5-yl)pyridine-3-yl)but-3-yn-1-ol] | 1

Second part, the compound after the results:

Row | IC50 [nM] | SMILES
5 | 3 | Nc1cc(-c2cc(-c3ccccc3)c3[nH]nc(N)c3c2)ccn1 [Example 104, 5-(2-Aminopyridin-4-yl)-7-phenyl-1H-indazol-3-amine]
6 | 21 | Nc1nccc(-c2ccc3[nH]nc(N)c3c2)c1C#CCCCN1CCOCC1 [Example 96, 5-(2-Amino-3-(5-morpholinopent-1-yn-1-yl)pyridin-4-yl)-1H-indazol-3-amine]
7 | 5 | Nc1cc(-c2cc(-c3ccoc3)c3[nH]nc(N)c3c2)ccn1 [Example 129, 5-(2-Aminopyridin-4-yl)-7-(furan-3-yl)-1H-indazol-3-amine]
8 | 1 | CC(C)(C)C#Cc1c(-c2ccc3[nH]nc(N)c3c2)ccnc1N [Example 72, 5-(2-Amino-3-(3,3-dimethylbut-1-yn-1-yl)pyridine-4-yl)-1H-indazol-3-amine]
9 | 1 | Nc1nccc(-c2ccc3[nH]nc(N)c3c2)c1C#Cc1ccccc1 [Example 75, 5-(2-Amino-3-(phenylethynyl)pyridine-4-yl)-1H-indazol-3-amine]
10 | 7 | Nc1nccc(-c2ccc3[nH]nc(N)c3c2)c1C#CC1(O)CCCCCC1 [Example 91, 1-((2-Amino-4-(3-amino-1H-indazol-5-yl)pyridine-3-yl)ethynyl)cycloheptan-1-ol]
11 | 11 | CC(C)(C)C#Cc1cc(-c2ccnc(N)c2)cc2c(N)n[nH]c12 [Example 137, 5-(2-Aminopyridin-4-yl)-7-(3,3-dimethylbut-1-yn-1-yl)-1H-indazol-3-amine]
12 | 3 | Nc1nccc(-c2ccc3[nH]nc(N)c3c2)c1C#CC1(O)CCCCC1 [Example 90, 1-((2-Amino-4-(3-amino-1H-indazol-5-yl)pyridine-3-yl)ethynyl)cyclohexan-1-ol]

Same assay, conditions: Adapta assay (second line of an example)

Row | SMILES | IC50 [nM]
13 | Nc1n[nH]c2ccc(-c3ccnc4[nH]c(CN5CCCCC5)cc34)cc12 [Example 260, 5-(2-(Piperidin-1-ylmethyl)-1H-pyrrolo[2,3-b]pyridine-4-yl)-1H-indazol-3-amine] | 27
14 | Nc1n[nH]c2ccc(-c3ccnc4[nH]c(C5CC5)cc34)cc12 [Example 218, 5-(2-Cyclopropyl-1H-pyrrolo[2,3-b]pyridin-4-yl)-1H-indazol-3-amine] | 1
15 | Nc1n[nH]c2ccc(-c3ccnc4[nH]c(CCN5CCOCC5)cc34)cc12 [Example 268, 5-(2-(2-Morpholinoethyl)-1H-pyrrolo[2,3-b]pyridin-4-yl)-1H-indazol-3-amine] | 1
16 | Nc1n[nH]c2ccc(-c3ccnc4[nH]c(CC5CCNCC5)cc34)cc12 [Example 272, 5-(2-(Piperidin-4-ylmethyl)-1H-pyrrolo[2,3-b]pyridin-4-yl)-1H-indazol-3-amine] | 1
17 | C#Cc1cc(-c2ccnc3[nH]ccc23)cc2c(N)n[nH]c12 [Example 200, 7-Ethynyl-5-(1H-pyrrolo[2,3-b]pyridin-4-yl)-1H-indazol-3-amine] | 3.3
18 | CC(C)(C)OCc1cc2c(-c3ccc4[nH]nc(N)c4c3)ccnc2[nH]1 [Example 227, 5-(2-(tert-Butoxymethyl)-1H-pyrrolo[2,3-b]pyridin-4-yl)-1H-indazol-3-amine] | 2
19 | Nc1n[nH]c2c(C#CC3CCCC3)cc(-c3ccnc4[nH]ccc34)cc12 [Example 203, 7-(Cyclopentylethynyl)-5-(1H-pyrrolo[2,3-b]pyridin-4-yl)-1H-indazol-3-amine] | 16
20 | Nc1n[nH]c2ccc(-c3ccnc4[nH]c(CN5CCCCCC5)cc34)cc12 [Example 265, 5-(2-(Azepan-1-ylmethyl)-1H-pyrrolo[2,3-b]pyridine-4-yl)-1H-indazol-3-amine] | 13
21 | CC(C)(C)C#Cc1cc(-c2ccnc3[nH]ccc23)cc2c(N)n[nH]c12 [Example 201, 7-(3,3-Dimethylbut-1-yn-1-yl)-5-(1H-pyrrolo[2,3-b]pyridin-4-yl)-1H-indazol-3-amine] | 11

Other lines, results leading:

Row | IC50 [nM] | SMILES
22 | 13 | CN1CCN(C(=O)c2cc3c(-c4ccc5[nH]nc(N)c5c4)ccnc3[nH]2)CC1 [Example 243, (4-(3-Amino-1H-indazol-5-yl)-1H-pyrrolo[2,3-b]pyridin-2-yl)(4-methylpiperazin-1-yl)methanone]
23 | 10 | CN(C)CCCNCc1cc2c(-c3ccc4[nH]nc(N)c4c3)ccnc2[nH]1 [Example 258, N^1-((4-(3-amino-1H-indazol-5-yl)-1H-pyrrolo[2,3-b]pyridin-2-yl)methyl)-N^3,N^3-dimethylpropane-1,3-diamine]
24 | 2 | Nc1n[nH]c2ccc(-c3ccnc4[nH]c(CN5CCOCC5)cc34)cc12 [Example 262, 5-(2-(Morpholinomethyl)-1H-pyrrolo[2,3-b]pyridine-4-yl)-1H-indazol-3-amine]
25 | 27 | Nc1n[nH]c2c(C#CCCCN3CCOCC3)cc(-c3ccnc4[nH]ccc34)cc12 [Example 210, 7-(5-Morpholinopent-1-yn-1-yl)-5-(1H-pyrrolo[2,3-b]pyridin-4-yl)-1H-indazol-3-amine]
26 | 14 | CN1CCN(Cc2cc3c(-c4ccc5[nH]nc(N)c5c4)ccnc3[nH]2)CC1 [Example 263, 5-(2-((4-Methylpiperazin-1-yl)methyl)-1H-pyrrolo[2,3-b]pyridine-4-yl)-1H-indazol-3-amine]
27 | 6 | Nc1n[nH]c2ccc(-c3ccnc4[nH]c(CNC5CCCCC5)cc34)cc12 [Example 251, 5-(2-((cyclohexylamino)methyl)-1H-pyrrolo[2,3-b]339yridine-4-yl)-1H-indazol-3-amine]
28 | 11 | Nc1n[nH]c2ccc(-c3ccnc4[nH]c(CN5CCC(F)(F)CC5)cc34)cc12 [Example 261, 5-(2-((4,4-Difluoropiperidin-1-yl)methyl)-1H-pyrrolo[2,3-b]pyridine-4-yl)-1H-indazol-3-amine]
29 | 26 | Nc1n[nH]c2ccc(-c3ccnc4[nH]c(CCC5CCCCC5)cc34)cc12 [Example 222, 5-(2-(2-Cyclohexylethyl)-1H-pyrrolo[2,3-b]pyridin-4-yl)-1H-indazol-3-amine]
30 | 32 | CC(C)N(C)Cc1cc2c(-c3ccc4[nH]nc(N)c4c3)ccnc2[nH]1 [Example 259, 5-(2-((Isopropyl(methyl)amino)methyl)-1H-pyrrolo[2,3-b]pyridine-4-yl)-1H-indazol-3-amine]
31 | 4 | Nc1n[nH]c2ccc(-c3ccnc4[nH]c(CCCN5CCCCC5)cc34)cc12 [Example 269, 5-(2-(3-(Piperidin-1-yl)propyl)-1H-pyrrolo[2,3-b]pyridin-4-yl)-1H-indazol-3-amine]
32 | 2 | Nc1n[nH]c2c(C#CC3CC3)cc(-c3ccnc4[nH]ccc34)cc12 [Example 202, 7-(Cyclopropylethynyl)-5-(1H-pyrrolo[2,3-b]pyridin-4-yl)-1H-indazol-3-amine]
